Ends that are not written are not given here.
Tests used:
TGF-β1 [1] = target: T1, TGF-β1 (Rattus norvegicus, UniProt P17246); assay: Corneal fibrosis and haze after 1 N NaOH damage, topical eye drops, photographs analysed with ImageJ; assay type: in vivo, Long-Evans rats; conditions: first experiment, Group 1
T1 construct: from tissue; host or cells: cornea of Long-Evans rats
Description: Male Long-Evans rats aged 10 weeks were used, divided into 5 groups: • Group 1: 12 rats, 6 treated with dexamethasone and 6 treated with mitomycin C • Group 2: 12 rats, 6 treated with p17 of the first formulation (see section 6.1.2.b) and 6 treated with p144 of the first formulation (see section 6.1.2.b) • Group 3: 12 rats, 6 treated with p17 of the second formulation (see section 6.1.2.b) and 6 treated with p144 of the second formulation (see section 6.1.2.b) • Group 4: 12 rats, 6 treated with p17 of the third formulation (see section 6.1.2.b) and 6 treated with p144 of the third formulation (see section 6.1.2.b) • Group 5: 12 rats, 6 treated with p17 of the fourth formulation (see section 6.1.2.b) and 6 treated with p144 of the fourth formulation (see section 6.1.2.b) • Group 6: 12 rats, 6 treated with p17 of the fifth formulation (see section 6.1.2.b) and 6 treated with p144 of the fifth formulation (see section 6.1.2.b)
To perform the damage in the cornea, the animals were anesthetized with isoflurane and a 5 mm Whatman paper disc impregnated in 1 N NaOH for 30 seconds was applied to them in the central part of the eye. After the damage, they were washed with abundant physiological saline serum and an antibiotic ointment was applied to them to prevent possible infections in the affected area.
After conducting several in vivo studies with the previously described groups of animals, it could be concluded that the chemical damage occurring after the application of NaOH for 30 seconds caused an excessive lesion for the study which was to be conducted, therefore it was decided to conduct new experiments reducing the time to 15 seconds.
It was randomly established that the left eye of each animal would act as a control and that the right eye would be the treated eye, such that the same animals acts as a control in addition to being treated. It must be pointed out that all the animals received antibiotic treatment in both eyes daily only during the first week of the study for the purposes of avoiding microbial keratitis.
Starting from 0.15% sodium hyaluronate (Hyabak 10 mL, Thea) without preservatives: • p144: 20 mg were dissolved in 5 ml of eye drops, 40 μl of saturated concentrated NaOH were incorporated, stirring and adding in portions of 5 μl. It was sonicated until solubilization. To adjust the pH, 500 μl of 1M Hepes were added, such that the pH changed from 10.5 to 7 • p144 control: 40 μl of saturated NaOH and 500 μl of 1 M HEPES (final concentration of HEPES 50 mM) • p17: 20 mg were dissolved in 5 ml of the eye drops, it was sonicated until complete solubilization and it was incorporated to the vial with a 10 ml syringe and a blue needle to perforate the filter of the contained (final concentration 2 mg/ml) • p17 control: non-manipulated eye drops • Note: The formulations were maintained at 4° C. throughout the study.
The administration of the treatment was initiated twenty-four hours after the damage. After that time a follow-up of the damage was performed, which consisted of taking photographs at days 0, 7, 14, 21, 28 and 35. To take the photographs the animals were anesthetized with isoflurane. Photographs were taken of both the control eye (left) and of the treated eye (right) with and without fluorescein. The photographs with fluorescein allowed to observe the evolution of the epithelial closure of the generated lesion, whereas the photographs without fluorescein show the evolution of the haze of the lesioned area. […]

TGF-β1 [2] = target: T2, TGF-β1 (Homo sapiens, UniProt P01137); assay type: cell-based; design: purchased Roche; host or cells: added to Mv-1-Lu (CCL-64) mink lung epithelial cells; conditions: Mv-1-Lu proliferation
T2 sequence (P01137 279-390 limits assumed, species assumed): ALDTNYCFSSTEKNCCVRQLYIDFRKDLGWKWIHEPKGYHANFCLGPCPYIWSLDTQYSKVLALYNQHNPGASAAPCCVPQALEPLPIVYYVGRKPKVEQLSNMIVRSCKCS
Description: The cell line Mv-1-Lu (CCL-64, […], Virginia, USA) derives from mink pulmonary epithelium, grows as a monolayer, and responds to the presence of TGF-β1 by decreasing its proliferation (FIG. 5). Thus, the peptide-mediated inhibition of this cytokine is able to restore cell growth and reflects the capacity of the different peptides to inhibit the biological activity of TGF-β1 in vitro. The peptides tested were obtained by peptide synthesis, in accordance to conventional procedures (Merrifield R B. J Am Chem Soc 1963; 85:2149-2154; Atherton E et al. J Chem Soc Perkin Trans 1981; 1:538-546).
The Mv-1-Lu cells are cultured to confluence in complete medium [RPMI-1640 supplemented with L-glutamine, sodium pyruvate, antibiotics and 10% fetal bovine serum (FBS)] at 37° C. and in 5% CO2 in 162 cm^2 bottles (Costar Corporation, CA, USA). Following trypsinization, the cells are cultured in 200 μl of complete medium in 96-well plates at an initial density of 5,000 cells/well at 37° C. and in 5% CO2 during 6 hours to ensure adhesion. Then, different concentrations of the peptides to be tested are added, starting from 200 μg/ml, and following 200 pg/ml of TGF-β1 (Roche) are added. After 12 hours of incubation 1 μCi of methyl-3H-thymidine (Amersham Life Science, Buckinghamshire, United Kingdom) is added per well in 25 μl of clean medium (RPMI-1640). The plate is incubated for 12 more hours under the same conditions. Finally, the cells are harvested (Filtermate 196 Harvester, Packard), transferring the tritiated thymidine, incorporated in the course of DNA synthesis, to plates (UniFilter-96 GF/C®, Perkin Elmer). Following the addition of scintillation fluid, the radioactivity was quantified using a scintillation counter (Top Count, Microplate Scintillation Counter, Packard). As positive and negative control, use was made of the incorporation of tritiated thymidine in the absence and presence of TGF-β1, respectively. The inhibition of TGF-β1 activity in this test was calculated based on the following formula: […]
The negative control represents the incorporation of tritiated thymidine in the presence of TGF-β1 but in the absence of peptide, whereas the positive control refers to the incorporation of tritiated thymidine in the absence of TGF-β1 and peptide. Thus, according to the capacity of the peptides to revert the cytokine repressor effect on Mv-1-Lu cell line proliferation, percentage of TGF-β1 biological activity inhibition by the peptides can be measured (Table 2).
Comparisons have been made of the activity of truncated peptides (derived from peptide sequence SEQ ID NO: 17) versus the complete sequence, in terms of the capacity to revert the suppressor effect of TGF-β1 upon proliferation of the Mv-1-Lu cell line. To this effect, and to determine the minimum sequence of peptide SEQ ID NO: 17 capable of inhibiting the biological activity of TGF-β1 in vitro, truncated versions of this peptide were synthesized, with truncation at the N-terminal end, C-terminal end or in both ends of the molecule. The peptides tested were obtained by peptide synthesis following conventional procedures (Merrifield R B. J Am Chem Soc 1963; 85:2149-2154; Atherton E et al. J Chem Soc Perkin Trans 1981; 1:538-546). Following the same methodology described in Example 2, the activity of truncated peptides versus the complete sequence of the peptide SEQ ID NO: 17 was quantified, in terms of a proliferation assay of the Mv-1-Lu cell line.

TGF-β1 [3] = target: T2, TGF-β1; assay: Biopanning of phage-displayed 15-aa peptide library on biotinylated TGF-β1, number of colonies per sequence; assay type: binding; design: purchased Roche; host or cells: added to Mv-1-Lu (CCL-64) mink lung epithelial cells; conditions: clones carrying the sequence among 108 colonies after the last biopanning cycle; approximate indication of affinity for TGF-β1
Description: These libraries comprise a plurality of filamentous bacteriophages (M13), each one containing a peptide genetically fused to a protein of the virus envelope—in this case bound to the N-terminal end of envelope protein pIII (FIG. 1). […] In the phage libraries, the sequence encoding the peptide originates from a sequence degenerated in each one of the 15 positions with the 20 natural amino acids, thus allowing the presentation of 1.1×10^12 possible sequences of 15 amino acids in different phages. The physical ratio, 1:1, between the peptide sequence and the DNA encoding it within the bacteriophage allows the selection (from a broad range of variants) of those sequences that specifically bind to TGF-β1. This process is carried out via an in vitro selection protocol known as “biopanning”.
This technique involves incubating a set of phages representative (to practical effects) of all the 15-aa variants, in a plate blocked with streptavidin (10 μg/ml in 0.1 M NaHCO3, during 2 h at room temperature) to which biotinylated TGF-β1 is added. […] TGF-β1 contacts the peptides carried by the phages at a concentration of […]. After about 12 hours incubation, unbound phages are eliminated by 5 washings with PBS/Tween (phosphate buffered saline/polyoxyalkylene derivatives of sorbitan fatty acid esters). […] The eluted phages are then amplified by infection in a bacterial strain (E. coli). The process is repeated three cycles so that an enrichment in the content of phages which specifically bind, and with high affinity, to TGF-β1 is achieved (FIG. 3). […] Thus, the phages selected in each cycle show more and more affinity for TGF-β1. At the end of the process, phages which have been selected for their affinity for TGF-β1, are sequenced by using primers, after isolation by tetracycline resistance of the genetically modified phages after infecting E. coli cells. […] The number of times which a sequence is repeated, corresponding to a 15 amino acids peptide carried by each clone, from the total of sequenced colonies is an indication of the degree of relative affinity of said 15 amino acids sequence for TGF-β1.
The selection of clones, obtained from the “biopanning”, was carried out by selection of the bacterial colonies infected with the phages in the presence of a bacterial antibiotic; the bacteria resistance is acquired by a tetracycline resistance gene encoded by the phage genome. Thus, only those colonies infected with bacteriophages are able to grow. This means that each colony contains the genome of only one phage coding for only one peptide presented in its surface.
A total number of 108 colonies of phage-infected bacteria were obtained from the last selection cycle of “biopanning”. The sequence of the regions coding for the peptides present in the pIII protein was carried out using primers identified with SEQ ID NO: 23. This table also reflects the number of colonies (clones) carrying said sequences.
The number of clones (colonies) of each sequence gives an approximate indication of the degree of affinity of the peptide for TGF-β1, that is, the more colonies the more binding affinity.

TGF-β1 [4] = target: T3, TGF-β1 (Mus musculus, UniProt P04202); assay: Model of acute liver damage induced by CCl4, type I collagen mRNA by real time PCR; assay type: in vivo, mice; conditions: for % Inhibition of type I collagen mRNA induction (in vivo TGF-β1 biological activity): Balb/C mice, oral CCl4, 50 μg of peptide every 24 h, sacrifice after 72 hours; for inhibition of the biological activity of TGF-β1 in vivo (in words): acute liver damage, type I collagen mRNA
T3 construct: from tissue; host or cells: liver of Balb/C mice (CCl4 model); lung of C57BL/6 mice (bleomycin model)
T3 sequence (P04202 279-390 limits assumed): as the sequence (P01137 279-390 limits assumed, species assumed) above, with A75S counted along it
Experimental: Acute liver damage generates a cascade of effects and physiological responses, including elevations in the concentrations of TGF-β1. This elevation is responsible for the expression of the type I collagen gene, among others. In this model of acute liver damage, female Balb/C mice weighing 25 to 30 g, were orally administered a dose of 2 μl of CCl4 (per gram of body weight) dissolved in an equivalent volume of corn oil (volumetric ratio of 1:1). The control group received an equivalent volume of corn oil only, and the treated groups received (following the single oral administration of CCl4 in corn oil) 50 μg of peptide in 500 μl of 1% physiological saline solution in DMSO (dimethyl sulfoxide) every 24 h. After 72 hours all animals were sacrificed, and the liver samples were processed. To evaluate mRNA expression, liver tissue was frozen in liquid nitrogen and stored at −80° C. until further use. Other liver tissue samples were stored in OCT® or Tissue-Tek® (Sakura Finetek B.V.) and processed in the same way as the samples used for mRNA studies. Other liver samples were fixed in 10% buffered formalin solution, embedded in paraffin and processed for their histological evaluation. The amount of mRNA encoding type I collagen was quantified in all groups using a quantitative polymerase chain reaction (PCR) technique. […] The capacity of the testing peptides to block the acute damage, as assessed by measuring the levels of induced type I collagen mRNA was quantified by real time PCR. […] The peptides tested were obtained by conventional solid peptide synthesis procedures (Merrifield R B. J Am Chem Soc 1963; 85:2149-2154; Atherton E et al. J Chem Soc Perkin Trans 1981; 1:538-546).

T1 sequence (P17246 279-390 limits assumed): as the sequence (P01137 279-390 limits assumed, species assumed) above, with A75S counted along it

| inhibition of the biological activity of TGF-β1 in vitro (in words) (TGF-β1 [2]) | No. colonies (TGF-β1 [3]) | Compound | clinical efficacy in the treatment of corneal fibrosis (TGF-β1 [1]) | % Inhibition of type I collagen mRNA induction (in vivo TGF-β1 biological activity) (TGF-β1 [4]) [%] | inhibition of the biological activity of TGF-β1 in vivo (in words) (TGF-β1 [4]) |
| --- | --- | --- | --- | --- | --- |
|  |  | CO[C@@]12[C@H](COC(N)=O)C3=C(C(=O)C(C)=C(N)C3=O)N1C[C@@H]1N[C@@H]12 [mitomycin C] | correspond to those described in the scientific literature |  |  |
| only inhibitory activity | 41 | RFFTRFPWHYHASRL [SEQ ID NO: 3] |  | 2.09 | much less active |
| inhibitory capacity | 6 | RKWFLQHRRMPVSVL [SEQ ID NO: 13] |  | 32.70 | inhibitory capacity |
| inhibitory capacity | 18 | RLAHSHRHRSHVALT [SEQ ID NO: 4] |  | 51.30 ± 15.3 | inhibitory capacity |
| inhibitory capacity | 2 | SGRRHLHRHHIFSLP [SEQ ID NO: 14] |  | 49.84 ± 24 | inhibitory capacity |
| inhibitory capacity | 4 | WHKYFLRRPLSVRTR [SEQ ID NO: 11] |  | 39.34 ± 21.9 | inhibitory capacity |

— patent publication US8158589B2, “Peptides with the capacity to bind to transforming growth factor β1 (TGF-β1)” (Proyecto Biomedicine Cima, S.L., priority 2003, dated 2012)
